Our source for the inhibition and IC50 values is patent US8680281B2, “Lactam inhibitors of 11-β-hydroxysteroid dehydrogenase 1” (Vitae Pharmaceuticals, Inc., priority 2008, dated 2014).

In general, inhibition refers to the drop in the measured response relative to a control, in per cent. Broadly, the IC50 is the concentration that gives 50% inhibition.

This test deals with human 11β-HSD1 (Homo sapiens, UniProt P28845). As to the kind of experiment: Biological Test Example 1: inhibition of a microsomal preparation of 11β-HSD1 (SPA). It is filed as biochemical. To be noted: microsomes from CHO cells overexpressing human 11β-HSD1; for inhibition at 0.1 µM: at 100 nM; for IC50: read-out: IC50 Range.
Sequence of human 11β-HSD1 (P28845 whole entry): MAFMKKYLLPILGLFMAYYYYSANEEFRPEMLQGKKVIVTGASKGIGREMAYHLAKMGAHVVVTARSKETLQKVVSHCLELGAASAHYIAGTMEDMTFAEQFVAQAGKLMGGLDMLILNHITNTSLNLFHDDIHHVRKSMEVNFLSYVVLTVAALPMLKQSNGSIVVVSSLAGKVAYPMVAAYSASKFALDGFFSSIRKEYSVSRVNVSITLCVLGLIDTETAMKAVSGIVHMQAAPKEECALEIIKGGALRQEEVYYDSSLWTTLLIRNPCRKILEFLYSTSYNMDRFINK

Regarding `C[C@@H](c1ccc(Br)cc1)N1CC[C@](CCO)(c2ccccc2)CC1=O` (single isomer, unassigned) [EXAMPLE 2 Isomer 1], the inhibition at 0.1 µM was 101% and the half-inhibitory concentration (IC50) was < 100 nM.

For `C[C@@H](c1ccc(Br)cc1)N1CC[C@@](CCO)(c2ccccc2)CC1=O` (single isomer, unassigned) [EXAMPLE 2 Isomer 2], the inhibition at 0.1 µM came to 73.8% and the IC50 is < 100 nM.

Regarding `C[C@@H](c1ccc(-c2ccc(F)cc2)cc1)N1CC[C@](CCO)(c2ccccc2)CC1=O` (single isomer, unassigned) [EXAMPLE 3 Isomer 1], the inhibition at 0.1 µM amounted to 97.9% and the 50% inhibitory concentration (IC50) was < 100 nM.

For the compound `C[C@@H](c1ccc(-c2ccc(F)cc2)cc1)N1CC[C@@](CCO)(c2ccccc2)CC1=O` (single isomer, unassigned) [EXAMPLE 3 Isomer 2], the inhibition at 0.1 µM was found to be 61.3% and the IC50 was < 100 nM.

As to `C[C@@H](c1ccc(Br)cc1)N1CC[C@](CCC(N)=O)(c2ccc(F)cc2)CC1=O` (single isomer, unassigned) [EXAMPLE 4 Isomer 1], the inhibition at 0.1 µM amounted to 96.8% and the IC50 is < 100 nM.

As for `C[C@@H](c1ccc(Br)cc1)N1CC[C@@](CCC(N)=O)(c2ccc(F)cc2)CC1=O` (single isomer, unassigned) [EXAMPLE 4 Isomer 2], the inhibition at 0.1 µM amounted to 27.8% and the half-maximal inhibitory concentration (IC50) is > 100 nM.

As for `C[C@@H](c1ccc(-c2ccc(=O)n(C)c2)cc1)N1CC[C@](CCCO)(c2ccc(F)cc2)CC1=O` (single isomer, unassigned) [EXAMPLE 5 Isomer 1], the inhibition at 0.1 µM worked out at 94% and the concentration for half-maximal inhibition (IC50) was < 100 nM.

For `C[C@@H](c1ccc(-c2ccc(=O)n(C)c2)cc1)N1CC[C@@](CCCO)(c2ccc(F)cc2)CC1=O` (single isomer, unassigned) [EXAMPLE 5 Isomer 2], the inhibition at 0.1 µM came out at 10.7% and the IC50 was > 100 nM.

For the compound `CC[C@@H](c1ccc(Br)cc1)N1CC[C@](CC(C)(C)O)(c2ccccc2)CC1=O` (single isomer, unassigned) [EXAMPLE 6 Isomer 1], the inhibition at 0.1 µM was determined as 98.3% and the IC50 was < 100 nM.

On to `CC[C@@H](c1ccc(Br)cc1)N1CC[C@@](CC(C)(C)O)(c2ccccc2)CC1=O` (single isomer, unassigned) [EXAMPLE 6 Isomer 2], for which the inhibition at 0.1 µM was determined as 82.6% and the IC50 was < 100 nM.

`C[C@@H](c1ccc(Br)cc1)N1CC[C@](CC(C)(C)O)(c2ccccc2)CC1=O` [EXAMPLE 7, (R)-1-((S)-1-(4-bromophenyl)ethyl)-4-(2-hydroxy-2-methylpropyl)-4-phenylpiperidin-2-one]: the inhibition at 0.1 µM came to 98% and the IC50 is < 100 nM.

In the case of `C[C@@H](c1ccc(-c2ccn(C)c(=O)c2)cc1)N1CC[C@](CC(C)(C)O)(c2ccccc2)CC1=O` [EXAMPLE 8, 4-(4-((S)-1-((R)-4-(2-hydroxy-2-methylpropyl)-2-oxo-4-phenylpiperidin-1-yl)ethyl)phenyl)-1-methylpyridin-2(1H)-one], the inhibition at 0.1 µM was found to be 93% and the IC50 was < 100 nM.

Regarding `C[C@@H](c1ccc(-c2ccc(=O)n(C)c2)cc1)N1CC[C@](CC(C)(C)O)(c2ccccc2)CC1=O` [EXAMPLE 9, 5-(4-((S)-1-((R)-4-(2-hydroxy-2-methylpropyl)-2-oxo-4-phenylpiperidin-1-yl)ethyl)phenyl)-1-methylpyridin-2(1H)-one], the inhibition at 0.1 µM is 92.7% and the IC50 was < 100 nM.

Regarding `C[C@@H](c1ccc(Br)cc1)N1CC[C@](CC(C)(C)C#N)(c2ccccc2)CC1=O` [EXAMPLE 10, 3-((S)-1-((S)-1-(4-bromophenyl)ethyl)-2-oxo-4-phenylpiperidin-4-yl)-2,2-dimethylpropanenitrile], the inhibition at 0.1 µM is 96% and the IC50 was < 100 nM.

Consider `C[C@@H](c1ccc(Br)cc1)N1CC[C@](CC(C)(C)C(N)=O)(c2ccccc2)CC1=O` [EXAMPLE 11, 3-((S)-1-((S)-1-(4-bromophenyl)ethyl)-2-oxo-4-phenylpiperidin-4-yl)-2,2-dimethylpropanamide], for which the inhibition at 0.1 µM is 95.5% and the IC50 was < 100 nM.

In the case of `C[C@@H](c1ccc(-c2cc[nH]c(=O)c2)cc1)N1CC[C@](CC(C)(C)O)(c2ccccc2)CC1=O` [EXAMPLE 12, 4-(4-((S)-1-((R)-4-(2-hydroxy-2-methylpropyl)-2-oxo-4-phenylpiperidin-1-yl)ethyl)phenyl)pyridin-2(1H)-one], the inhibition at 0.1 µM came out at 95.9% and the IC50 is < 100 nM.

`C[C@@H](c1ccc(-c2ccc(=O)[nH]c2)cc1)N1CC[C@](CC(C)(C)O)(c2ccccc2)CC1=O` [EXAMPLE 13, 5-(4-((S)-1-((R)-4-(2-hydroxy-2-methylpropyl)-2-oxo-4-phenylpiperidin-1-yl)ethyl)phenyl)pyridin-2(1H)-one]: the inhibition at 0.1 µM worked out at 94.3% and the IC50 was < 100 nM.
